In assay [1] the target is T1, FGFR4 (Homo sapiens, UniProt P22455).
T1 construct: made in house; host or cells: E. coli derived from BL21, infected with T7 phage
Nature of the assay: Kinase binding assay (kinase-tagged T7 phage, qPCR), Kd. Particulars: read-out: FGFR4 (Kd nM).

Assay [2] addresses T2, FGFR3 (Homo sapiens, UniProt P22607).
T2 construct: made in house; host or cells: E. coli derived from BL21, infected with T7 phage
The assay is described as above. Particulars: read-out: FGFR3 (Kd nM).

Assay [3] concerns the target T3, FGFR1 (Homo sapiens, UniProt P11362).
T3 construct: made in house; host or cells: E. coli derived from BL21, infected with T7 phage
The description is as above. Particulars: read-out: FGFR1 (Kd nM).

The target in assay [4] is T4, FGFR2 (Homo sapiens, UniProt P21802).
T4 construct: made in house; host or cells: E. coli derived from BL21, infected with T7 phage
Described as above. Particulars: read-out: FGFR2 (Kd nM).

The target of assay [5] is T5, FGFR3-BAIAP2L1 Ba/F3 (Homo sapiens, UniProt P22607).
T5 construct: host or cells: Ba/F3; the other entry of the earlier key: BAIAP2L1 (Q9UHR4, BAR/IMD domain-containing adapter protein 2-like 1)
Nature of the assay: Ba/F3 cell viability assay (CellTiter-Glo 2.0). Type of assay: cell-based. The following applies: Ba/F3 FGFR3-BAIAP2L1 cells, 48 hours.

Assay [6] deals with T6, BCR-FGFR1 Ba/F3 (Homo sapiens, UniProt P11362).
T6 construct: host or cells: Ba/F3; the other entry of the earlier key: BCR (P11274, Breakpoint cluster region protein)
In words: Ba/F3 cell viability assay (CellTiter-Glo 2.0). Type of assay: cell-based. Particulars: Ba/F3 BCR-FGFR1 cells, 48 hours.

Assay [7] concerns the target T7, BCR-FGFR4 Ba/F3 (Homo sapiens, UniProt P22455).
T7 construct: host or cells: Ba/F3; the other entry of the earlier key: BCR (P11274, Breakpoint cluster region protein)
Nature of the assay: Ba/F3 cell viability assay (CellTiter-Glo 2.0). Type of assay: cell-based. Particulars: Ba/F3 BCR-FGFR4 cells, 48 hours.

T5 sequence (P22607 397-758 limits assumed): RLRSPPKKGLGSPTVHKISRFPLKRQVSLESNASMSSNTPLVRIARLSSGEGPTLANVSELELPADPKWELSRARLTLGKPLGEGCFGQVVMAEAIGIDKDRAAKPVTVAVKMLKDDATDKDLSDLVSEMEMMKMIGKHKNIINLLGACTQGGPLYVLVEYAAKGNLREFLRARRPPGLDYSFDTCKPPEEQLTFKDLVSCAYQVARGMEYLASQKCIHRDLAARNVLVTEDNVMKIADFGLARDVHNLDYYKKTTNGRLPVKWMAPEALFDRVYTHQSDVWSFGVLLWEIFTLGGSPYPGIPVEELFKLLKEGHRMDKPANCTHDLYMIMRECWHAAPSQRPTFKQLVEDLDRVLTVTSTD
T4 sequence (P21802 22-821): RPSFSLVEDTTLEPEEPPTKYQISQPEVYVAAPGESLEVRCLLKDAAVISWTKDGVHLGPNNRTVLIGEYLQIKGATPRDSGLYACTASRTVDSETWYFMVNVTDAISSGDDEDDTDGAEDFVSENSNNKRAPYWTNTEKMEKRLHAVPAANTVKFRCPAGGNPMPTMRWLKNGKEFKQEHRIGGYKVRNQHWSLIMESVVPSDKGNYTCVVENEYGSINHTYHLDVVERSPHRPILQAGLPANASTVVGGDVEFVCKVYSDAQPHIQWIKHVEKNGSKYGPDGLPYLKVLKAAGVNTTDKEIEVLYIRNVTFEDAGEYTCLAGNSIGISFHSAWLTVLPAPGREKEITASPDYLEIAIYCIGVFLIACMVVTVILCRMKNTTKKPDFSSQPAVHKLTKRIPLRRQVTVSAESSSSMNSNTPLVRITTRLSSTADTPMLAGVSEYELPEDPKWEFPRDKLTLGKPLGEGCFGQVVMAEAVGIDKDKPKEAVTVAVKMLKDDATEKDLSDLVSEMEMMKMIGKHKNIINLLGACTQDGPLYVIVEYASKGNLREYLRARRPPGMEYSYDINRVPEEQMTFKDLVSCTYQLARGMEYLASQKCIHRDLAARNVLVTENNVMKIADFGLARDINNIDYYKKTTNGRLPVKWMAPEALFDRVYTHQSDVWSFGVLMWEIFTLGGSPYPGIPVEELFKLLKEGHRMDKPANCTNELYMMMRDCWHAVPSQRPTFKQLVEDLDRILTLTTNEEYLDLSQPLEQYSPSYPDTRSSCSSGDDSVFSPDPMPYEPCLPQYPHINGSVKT
T7 sequence (P22455 467-755 limits assumed): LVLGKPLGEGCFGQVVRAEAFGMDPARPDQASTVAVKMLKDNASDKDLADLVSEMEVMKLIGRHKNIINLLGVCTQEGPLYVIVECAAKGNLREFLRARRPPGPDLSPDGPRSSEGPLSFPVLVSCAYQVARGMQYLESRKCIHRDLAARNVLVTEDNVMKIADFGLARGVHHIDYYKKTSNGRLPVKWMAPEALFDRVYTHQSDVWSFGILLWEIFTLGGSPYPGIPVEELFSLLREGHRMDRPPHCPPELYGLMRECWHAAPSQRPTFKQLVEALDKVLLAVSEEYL
T2 sequence (P22607 23-806): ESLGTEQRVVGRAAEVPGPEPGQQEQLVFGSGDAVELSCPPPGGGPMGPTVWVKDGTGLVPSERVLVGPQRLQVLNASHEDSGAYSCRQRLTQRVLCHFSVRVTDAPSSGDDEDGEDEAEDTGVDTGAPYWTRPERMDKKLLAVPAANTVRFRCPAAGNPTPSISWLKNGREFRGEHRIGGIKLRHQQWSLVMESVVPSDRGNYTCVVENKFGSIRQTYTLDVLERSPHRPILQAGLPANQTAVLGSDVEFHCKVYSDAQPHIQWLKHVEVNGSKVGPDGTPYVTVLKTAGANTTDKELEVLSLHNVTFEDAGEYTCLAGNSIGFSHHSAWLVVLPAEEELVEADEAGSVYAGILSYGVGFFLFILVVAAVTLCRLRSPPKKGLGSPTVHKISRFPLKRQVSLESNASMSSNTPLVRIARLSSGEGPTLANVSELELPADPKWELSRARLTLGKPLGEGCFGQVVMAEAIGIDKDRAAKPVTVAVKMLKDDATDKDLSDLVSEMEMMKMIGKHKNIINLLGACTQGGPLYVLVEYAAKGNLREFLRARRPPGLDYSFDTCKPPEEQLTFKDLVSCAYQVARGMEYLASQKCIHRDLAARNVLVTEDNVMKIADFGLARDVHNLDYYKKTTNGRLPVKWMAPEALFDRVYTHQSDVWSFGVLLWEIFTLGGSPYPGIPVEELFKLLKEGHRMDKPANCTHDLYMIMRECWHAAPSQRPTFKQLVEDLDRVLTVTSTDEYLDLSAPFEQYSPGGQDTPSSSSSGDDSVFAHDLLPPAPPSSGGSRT
T1 sequence (P22455 22-802): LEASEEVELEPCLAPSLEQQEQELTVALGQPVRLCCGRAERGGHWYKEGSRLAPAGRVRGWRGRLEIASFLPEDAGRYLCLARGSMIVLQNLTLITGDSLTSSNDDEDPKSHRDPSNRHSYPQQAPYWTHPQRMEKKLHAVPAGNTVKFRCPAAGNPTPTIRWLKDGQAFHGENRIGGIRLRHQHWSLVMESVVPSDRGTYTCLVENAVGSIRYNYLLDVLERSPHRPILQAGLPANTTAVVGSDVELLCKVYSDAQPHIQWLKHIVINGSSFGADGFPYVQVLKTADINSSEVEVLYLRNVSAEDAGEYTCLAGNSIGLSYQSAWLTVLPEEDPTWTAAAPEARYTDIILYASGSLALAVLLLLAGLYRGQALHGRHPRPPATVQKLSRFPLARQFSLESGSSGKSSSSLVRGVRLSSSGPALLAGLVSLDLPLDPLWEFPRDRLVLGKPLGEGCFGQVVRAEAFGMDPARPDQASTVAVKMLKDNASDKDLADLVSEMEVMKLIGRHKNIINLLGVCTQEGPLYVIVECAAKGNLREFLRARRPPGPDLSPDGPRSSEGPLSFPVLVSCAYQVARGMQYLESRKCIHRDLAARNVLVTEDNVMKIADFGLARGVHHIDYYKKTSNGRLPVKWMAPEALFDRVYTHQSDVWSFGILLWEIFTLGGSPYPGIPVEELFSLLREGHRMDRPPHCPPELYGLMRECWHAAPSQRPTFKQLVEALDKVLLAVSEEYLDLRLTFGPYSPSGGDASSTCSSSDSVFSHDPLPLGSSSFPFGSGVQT
T3 sequence (P11362 22-822): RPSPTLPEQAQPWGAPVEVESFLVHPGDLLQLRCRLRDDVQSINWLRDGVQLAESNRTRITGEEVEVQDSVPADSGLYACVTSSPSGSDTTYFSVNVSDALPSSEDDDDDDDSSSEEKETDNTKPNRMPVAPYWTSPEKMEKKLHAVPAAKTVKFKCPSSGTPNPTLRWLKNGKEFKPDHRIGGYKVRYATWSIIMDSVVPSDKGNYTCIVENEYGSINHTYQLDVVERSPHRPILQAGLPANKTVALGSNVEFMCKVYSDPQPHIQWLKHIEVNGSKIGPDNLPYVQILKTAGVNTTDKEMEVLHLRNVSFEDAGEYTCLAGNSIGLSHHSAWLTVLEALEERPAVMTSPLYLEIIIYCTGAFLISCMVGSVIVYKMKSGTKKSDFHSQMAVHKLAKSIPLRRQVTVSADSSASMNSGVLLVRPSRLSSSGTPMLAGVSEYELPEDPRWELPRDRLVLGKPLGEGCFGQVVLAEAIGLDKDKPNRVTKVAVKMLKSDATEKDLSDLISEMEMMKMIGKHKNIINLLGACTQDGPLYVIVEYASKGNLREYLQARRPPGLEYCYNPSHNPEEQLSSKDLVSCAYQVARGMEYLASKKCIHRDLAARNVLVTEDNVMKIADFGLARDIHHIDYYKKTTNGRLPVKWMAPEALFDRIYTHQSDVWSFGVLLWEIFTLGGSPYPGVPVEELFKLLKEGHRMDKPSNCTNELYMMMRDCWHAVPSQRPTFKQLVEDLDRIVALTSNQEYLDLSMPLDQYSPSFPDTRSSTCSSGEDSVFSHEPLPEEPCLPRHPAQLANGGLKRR
T6 sequence (P11362 478-767 limits assumed): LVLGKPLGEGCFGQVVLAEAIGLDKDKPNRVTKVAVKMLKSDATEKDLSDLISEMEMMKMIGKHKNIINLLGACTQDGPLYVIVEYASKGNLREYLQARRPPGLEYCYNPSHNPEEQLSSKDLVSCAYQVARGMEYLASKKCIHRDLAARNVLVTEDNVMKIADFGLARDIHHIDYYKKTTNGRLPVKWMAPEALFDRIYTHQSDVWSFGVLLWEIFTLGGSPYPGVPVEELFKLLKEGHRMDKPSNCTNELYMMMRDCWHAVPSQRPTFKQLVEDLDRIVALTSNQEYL

With `Cc1cc(C#N)cc(-c2n[nH]c3ccc(O[C@H](C)c4c(C)cnnc4C)cc23)c1` [Example 79, 3-[5-[(1R)-1-(3,5-dimethylpyridazin-4-yl)ethoxy]-1H-indazol-3-yl]-5-methyl-benzonitrile], the dissociation constant (Kd) in assay [1], in assay [2], in assay [3] and in assay [4] was 0.1 to 100 nM each time. Also, the IC50 in assay [5] was 0.1 to 100 nM; in assay [6] it was 250 to 1000 nM; in assay [7] it was 250 to 1000 nM.

For the compound `C=CC(=O)N1CCOc2ncc(-c3n[nH]c4ccc(O[C@H](C)c5c(Cl)cncc5Cl)cc34)cc21` [Example 25, 1-[7-[5-[(1R)-1-(3,5-dichloro-4-pyridyl)ethoxy]-1H-indazol-3-yl]-2,3-dihydro-pyrido[2,3-b][1,4]oxazin-1-yl]prop-2-en-1-one], the equilibrium dissociation constant (Kd) in assay [1] was 0.1 to 100 nM; in assay [2], over 1000 nM; in assay [3], over 1000 nM; in assay [4] it was over 1000 nM. The IC50 in assay [5] was 250 to 1000 nM; in assay [6], over 1000 nM; in assay [7], 0.1 to 100 nM.

In the case of `Cc1cnnc(C)c1[C@@H](C)Oc1ccc2[nH]nc(-c3cc(C#N)cc(OCCO)c3)c2c1` [Example 72, 3-[5-[(1R)-1-(3,5-dimethylpyridazin-4-yl)ethoxy]-1H-indazol-3-yl]-5-(2-hydroxyethoxy)benzonitrile], the dissociation constant Kd in assay [1], in assay [2], in assay [3] and in assay [4] was 0.1 to 100 nM in each case. Also, the concentration for half-maximal inhibition (IC50) fell in the range of 0.1 to 100 nM in assay [5], 250 to 1000 nM in assay [6] and 100 to 250 nM in assay [7].

As to `C[C@@H](Oc1ccc2[nH]nc(-c3cnc(N)c(OC(F)F)c3)c2c1)c1c(Cl)cncc1Cl` [Example 28, 5-[5-[(1R)-1-(3,5-dichloro-4-pyridyl)ethoxy]-1H-indazol-3-yl]-3-(difluoromethoxy)pyridin-2-amine], the dissociation constant (Kd) in assay [1] was 0.1 to 100 nM; in assay [2] it was 250 to 1000 nM; in assay [3], 250 to 1000 nM; in assay [4], over 1000 nM. Besides, the IC50 in assay [5] was 250 to 1000 nM; in assay [6], over 1000 nM; in assay [7], 250 to 1000 nM.

Regarding `C[C@@H](Oc1ccc2[nH]nc(-c3cnc(N)c(C#N)c3)c2c1)c1c(Cl)cncc1Cl` [Example 30, 2-amino-5-[5-[(1R)-1-(3,5-dichloro-4-pyridyl)ethoxy]-1H-indazol-3-yl]pyridine-3-carbonitrile], the Kd in assay [1] is 0.1 to 100 nM; in assay [2], 0.1 to 100 nM; in assay [3], 0.1 to 100 nM; in assay [4], over 1000 nM. Besides, the IC50 in assay [7] lay within 250 to 1000 nM.

For `Cc1ccc(C(=O)N2CCOc3ncc(-c4n[nH]c5ccc(O[C@H](C)c6c(Cl)cncc6Cl)cc45)cc32)cn1` [Example 41], the dissociation constant (Kd) fell in the range of 0.1 to 100 nM in assay [1], 0.1 to 100 nM in assay [2], 0.1 to 100 nM in assay [3] and 100 to 250 nM in assay [4]. Moreover, the 50% inhibitory concentration (IC50) in assay [7] was in the range of 250 to 1000 nM.

In the case of `COc1cc(NC(=O)c2ccccn2)cc(-c2n[nH]c3ccc(O[C@H](C)c4c(Cl)cncc4Cl)cc23)c1` [Example 45, N-[3-[5-[(1R)-1-(3,5-dichloro-4-pyridyl)ethoxy]-1H-indazol-3-yl]-5-methoxy-phenyl]pyridine-2-carboxamide], the Kd is 0.1 to 100 nM in assay [1], 0.1 to 100 nM in assay [2], 250 to 1000 nM in assay [3] and over 1000 nM in assay [4]. In addition, in assay [7], the half-maximal inhibitory concentration (IC50) lay in the range of 250 to 1000 nM.

For `C[C@@H](Oc1ccc2[nH]nc(-c3cnc4c(c3)NCCO4)c2c1)c1c(Cl)cncc1Cl` [Example 17, 7-[5-[(1R)-1-(3,5-dichloro-4-pyridyl)ethoxy]-1H-indazol-3-yl]-2,3-dihydro-1H-pyrido[2,3-b][1,4]oxazine], the Kd in assay [1], in assay [2], in assay [3] and in assay [4] was 0.1 to 100 nM throughout. Besides, the half-maximal inhibitory concentration (IC50) in assay [7] lay within 250 to 1000 nM.

Consider `C[C@@H](Oc1ccc2[nH]nc(-c3cnc4c(c3)N(C(=O)CCN(C)C)CCO4)c2c1)c1c(Cl)cncc1Cl` [Example 26, 1-[7-[5-[(1R)-1-(3,5-dichloro-4-pyridyl)ethoxy]-1H-indazol-3-yl]-2,3-dihydropyrido[2,3-b][1,4]oxazin-1-yl]-3-(dimethyl-amino)propan-1-one], for which the dissociation constant (Kd) was 0.1 to 100 nM in assay [1], 250 to 1000 nM in assay [2], over 1000 nM in assay [3] and over 1000 nM in assay [4]. In assay [7], the concentration for half-maximal inhibition (IC50) was in the range of 0.1 to 100 nM.

`Cc1ncccc1C(=O)N1CCOc2ncc(-c3n[nH]c4ccc(O[C@H](C)c5c(Cl)cncc5Cl)cc34)cc21` [Example 42, [7-[5-[(1R)-1-(3,5-dichloro-4-pyridyl)ethoxy]-1H-indazol-3-yl]-2,3-dihydro-pyrido[2,3-b][1,4]oxazin-1-yl]-(2-methyl-3-pyridyl)methanone]: the Kd is 0.1 to 100 nM in assay [1], 100 to 250 nM in assay [2], over 1000 nM in assay [3] and over 1000 nM in assay [4]. In assay [7], the half-inhibitory concentration (IC50) was over 1000 nM.
